The results in this text go back to patent US11166934B2 (Azcuris Co., Ltd., priority 2017, dated 2021).

Where two headings read alike, the source gives them in different places.

For one experiment, the target named is binding of TSLP to TSLPR (Homo sapiens, UniProt Q969D9). As to the kind of experiment: ELISA-based TSLP-TSLPR interaction assay (FLAG-TSLP, TSLPR-His, HRP). To be noted: for inhibitory effects on the binding of TSLP to TSLP receptor (in words): treated alone.
Experiment [1] has as its system TSLP-mediated phosphorylation of STAT5 in HMC-1 human mast cell line. As to the kind of experiment: Cell-based efficacy evaluation using FACS: intracellular phosphorylation of STAT5 after TSLP treatment of HMC-1 cells. To be noted: for Degrees of intracellular phosphorylation of STAT5 molecules (%): HMC-1 cells, TSLP 100 ng/mL, 30 min, control treated with TSLP alone = 100%. The procedure: The binding of TSLP to TSLP receptor activates various signaling pathways, mainly the JAK/STAT pathway. TSLP-mediated signaling is well known to specifically phosphorylate STAT5 among STAT molecules.
In this example, this fact was confirmed through the following experiment.
First, HMC-1, a human mast cell line, was cultured until an appropriate number of cells were maintained in a 96-well plate. […] Cells were fixed with Cytofix. Subsequently, cells were permeabilized with a permeabilization buffer and stained with anti-pSTAT5 antibody at 4° C. for 30 min. Cells were washed three times with the same buffer and analyzed by flow cytometry. […] The intracellular phosphorylation of STAT5 molecules in the control was 100%.

Where [2] appears, read: read-out: TSLP-TSLPR inhibitions (%).

Sequence of binding of TSLP to TSLPR (Q969D9 29-159): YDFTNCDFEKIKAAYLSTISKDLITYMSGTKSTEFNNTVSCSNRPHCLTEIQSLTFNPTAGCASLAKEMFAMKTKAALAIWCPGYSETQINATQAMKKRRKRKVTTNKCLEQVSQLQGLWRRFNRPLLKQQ

For `O=c1cc(-c2ccccc2)oc2cc(O)c(O)c(O)c12` [Formula 1, baicalein], at binding of TSLP to TSLPR (read-out: TSLP-TSLPR inhibitions (%), 0.1 mM, Table 5), the inhibition at 100 µM worked out at 3.2 ± 1.3%. Also, the inhibition at 300 µM is 45.8 ± 0.7% on binding of TSLP to TSLPR (read-out: TSLP-TSLPR inhibitions (%), 0.3 mM, Table 2) and 16.5 ± 1.6% on binding of TSLP to TSLPR (read-out: TSLP-TSLPR inhibitions (%), 0.3 mM, Table 6). In addition, the “Degrees of intracellular phosphorylation of STAT5 molecules (%)” value stood at 65.7% in experiment [1] (3 μM) and 61.6% in experiment [1] (10 μM). The “effect on phosphorylation of STAT5 molecules (in words)” value in experiment [1] (summary of Table 1) is “inhibit the phosphorylation of STAT5 molecules”.

Consider `Oc1ccc(-c2[o+]c3cc(O)cc(O)c3cc2O)cc1` [Formula 2, pelargonidin chloride], for which, on binding of TSLP to TSLPR (setting [2]), the inhibition at 150 µM is 6.3 ± 0.1% and the inhibition at 300 µM turned out to be 13.1 ± 5.8%.

Consider `O=c1c(O)c(-c2ccc(O)cc2)oc2cc(O)cc(O)c12` [Formula 3, kaempferol], for which the inhibition at 150 µM at binding of TSLP to TSLPR (setting [2]) worked out at 0.6 ± 3.7%.

Turning to `O=C1/C(=C2\Nc3ccccc3C2=O)Nc2ccccc21` [Formula 4, indigo dye], the inhibition at 150 µM on binding of TSLP to TSLPR (setting [2]) amounted to 3.5 ± 2.7%.

Consider `CN(C)CCn1c(=O)c2nc(-c3ccccc3)oc2c2ccccc21` [Formula 5, 5-(2-(dimethylamino)ethyl)-2-phenyloxazolo[4,5-c]quinolin-4(5H)-one], for which, at binding of TSLP to TSLPR (setting [2]), the inhibition at 100 µM worked out at 6.5 ± 8.6%, the inhibition at 150 µM was determined as 10.2 ± 17% and the inhibition at 300 µM turned out to be 21.6 ± 3.4%. For the same molecule, the “inhibitory effects on the binding of TSLP to TSLP receptor (in words)” value on binding of TSLP to TSLPR is on record as “insignificant inhibitory effects”.

Take `CN(C)CCOc1nc2ccccc2c2oc(-c3ccccc3)nc12` [Formula 6, N,N-dimethyl-2-((2-phenyloxazolo[4,5-c]quinolin4-yl)oxy)ethanamine]: on binding of TSLP to TSLPR (setting [2]), the inhibition at 150 µM came out at 5.4 ± 0.7% and the inhibition at 300 µM was 19.3 ± 3%. Also, on binding of TSLP to TSLPR, the “inhibitory effects on the binding of TSLP to TSLP receptor (in words)” value is given as “insignificant inhibitory effects”.
